The subject of experiment [1] is oophoroma cell line (A2780). In words: Test for cell growth inhibitory activity against A2780 (epithelial ovarian cancer). Format: cell-based. As to conditions: cultured 72 hr, sulforhodamine B. On the procedure:
An experiment was performed according to the method described in Ahmed SA et al., 1994. Journal of Immunological Methods 170: 211-224, or Boyed M R et al., 1989.
(§1) A cell suspension of oophoroma cell line (A2780) prepared to 2 to 3×10^3/well was added to a well microplate, a given amount of a test substance (0, 1.25, 2.5, 5, 10, 12.5, 20, 25, 50, 100 μM) was added to the culture medium, and the mixture was cultured for 72 hr. Thereafter, 0.4% sulforhodamine B was added to each well, and the absorbance at 570 nm was measured by a microplate reader. The cell growth inhibition ratio was calculated from the above-mentioned formula, and IC50 value was determined from the data. The same test was performed using HOSE cell (normal ovary cell line) as a comparison target instead of A2780 cell, and IC50 value was determined.

Experiment [2] concerns HOSE cell (normal ovary cell line). The experiment in a line: Cell growth inhibitory activity against HOSE cell (comparison target). The class given is cell-based. To be noted: cultured 72 hr, sulforhodamine B. On the procedure:
as §1

Broadly, the IC50 is the concentration that inhibits the measured activity by half. For the molecule `CC(C#N)(COc1ccc(C(F)(F)F)cc1)NC(=O)c1ccc(C(F)(F)C(F)(F)F)cc1` (racemic) [1-10], the IC50 amounted to 10.3 µM in experiment [1] and 49.4 µM in experiment [2].

For `CC(C#N)(COc1ccc(C#Cc2ccccc2)cc1)NC(=O)c1ccc(C(F)(F)F)cc1` (racemic) [1-25], the IC50 in experiment [1] came to 4.53 µM; in experiment [2] it was 15.3 µM.

As to `CC(C#N)(COc1ccc(C(F)(F)F)cc1)NC(=O)c1cccc(OC(F)(F)F)c1` (racemic) [1-29], the IC50 in experiment [1] turned out to be 13.3 µM.

With `Cn1nc(C(F)(F)F)cc1C(=O)NC(C)(C#N)COc1ccc(Cl)cc1` (racemic) [1-39], 6.97 µM corresponded to half-maximal inhibition in experiment [1] (IC50).

For `CC(C)(C)C(C#N)(COc1ccc(C(F)(F)F)cc1)NC(=O)c1ccc(Cl)cc1Cl` (racemic) [1-56], the IC50 in experiment [1] is 11.4 µM.

On to `CC(C)C(C#N)(COc1ccc(Cl)cc1)NC(=O)Cc1cccc(Cl)c1` (stereo not drawn) [2-27], for which the IC50 in experiment [1] worked out at 8.81 µM; in experiment [2], 15.8 µM.

Molecule `CC(C#N)(COc1ccc(C(F)(F)F)cc1)NC(=O)Cc1ccc(C(F)(F)C(F)(F)C(F)(F)F)cc1` (stereo not drawn) [2-109] yielded an IC50 in experiment [1] of 3.77 µM.

For `CC(C#N)(COc1ccc(Cl)cc1)NC(=O)Cc1ccc(SC(F)(F)C(F)(F)C(F)(F)F)cc1` (stereo not drawn) [2-114], the IC50 in experiment [1] worked out at 3.53 µM; in experiment [2], 19.9 µM.

`CC(C)(C)C#Cc1ccc(OCC(C)(C#N)NC(=O)Cc2ccc(C(F)(F)F)cc2)cc1` (stereo not drawn) [2-120]: the IC50 turned out to be 6.2 µM in experiment [1] and 10.4 µM in experiment [2].

In experiment [1], `CCCCCCCCOCC(C)(C#N)NC(=O)Cc1ccc(C(F)(F)F)cc1` (stereo not drawn) [4-1] returned an IC50 of 7.22 µM.

For the origin of these results see US10292960B2, “Anticancer agent comprising aminoacetonitrile compound as active ingredient” (PITNEY PHARMACEUTICALS PTY LIMITED, priority 2013, dated 2019).
